From patent US7691624B2, “Cancer cell detecting devices” (Academia Sinica, priority 2003, dated 2010)

Assays:
LD = test: Pre-stained gel electrophoresis selectivity assay; format: binding; conditions: 0.1 μM compound, 10 μM DNA, 254 nm UV light
Protocol: (§1) Pre-stained gels were used for selectivity assays. A 0.1 μM compound 2 solution was initially incubated with 10 μM of different DNA solutions for 10 minutes. Gel electrophoresis was then carried out in an electric field of 100 V/cm at 4° C. for 6 hours. All of the pre-stained gels were photographed under 254 nm UV light using a Bio-Rad imaging detector.
(§2) Gels pre-stained with compound 2 were used before running electrophoresis for AT, LD, GC, G10, LQ1, LQ2, LQ4, Tet12, Oxy12, Hum12, Apt, Oxy28, and Hum24. […] This third band is ascribed to be a linear tetramer of Tet12.

AT = test: Pre-stained gel electrophoresis selectivity assay; format: binding; conditions: 0.1 μM compound, 10 μM DNA, 254 nm UV light
Protocol: as §1, §2

G10 = test: Pre-stained gel electrophoresis selectivity assay; format: binding; conditions: 0.1 μM compound, 10 μM DNA, 254 nm UV light
Protocol: as §1, §2

Hum12 = test: Pre-stained gel electrophoresis selectivity assay; format: binding; conditions: 0.1 μM compound, 10 μM DNA, 254 nm UV light
Protocol: as §1, §2

LQ2 = test: Pre-stained gel electrophoresis selectivity assay; format: binding; conditions: 0.1 μM compound, 10 μM DNA, 254 nm UV light
Protocol: as §1, §2

LQ1 = test: Pre-stained gel electrophoresis selectivity assay; format: binding; conditions: 0.1 μM compound, 10 μM DNA, 254 nm UV light
Protocol: as §1, §2

GC = test: Pre-stained gel electrophoresis selectivity assay; format: binding; conditions: 0.1 μM compound, 10 μM DNA, 254 nm UV light
Protocol: as §1, §2

Apt = test: Pre-stained gel electrophoresis selectivity assay; format: binding; conditions: 0.1 μM compound, 10 μM DNA, 254 nm UV light
Protocol: as §1, §2

Oxy12 = test: Pre-stained gel electrophoresis selectivity assay; format: binding; conditions: 0.1 μM compound, 10 μM DNA, 254 nm UV light
Protocol: as §1, §2

[1] = Fluorescence analysis in aqueous solution; format: physicochemical; conditions: λex≈430 nm, no DNA
Protocol: (§3) Compound 2 was mixed with eleven DNAs and subjected to fluorescence analysis at λex≈430 nm, using a Hitachi F4010 spectrofluorimeter with a 2 nm bandwidth in a 1-cm cell. Fluorescence analysis was also carried out for compound 4 in the presence of Hum24. […] Further, the fluorescence peaks for a complex of compound 2 and a DNA duplex and a complex of compound 2 and a DNA quadruplex were at ˜550 nm and ˜575 nm, respectively.

NIH3T3 normal cells [2] = test: Cancer cell diagnosis in a tube; format: cell-based; conditions: NIH3T3 normal cells alone
From the text: (§4) NIH3T3 normal cells and a mixture of NIH3T3 normal cells and CL1-0 cancer cells with a cell ratio of 100:1 were respectively stained with Compound 2 and allowed to flow through a tube. The fluorescence emission upon excitation was monitored. […] In other words, this method can be used for early detection of cancer cells when cancer cells have a low concentration in a sample. For example, this method can be used to identify patients at risk of developing cancer, who should consider further examination by a physician.

[3] = tested on: mixture of NIH3T3 normal cells and CL1-0 cancer cells with a cell ratio of 100:1; test: Cancer cell diagnosis in a tube; format: cell-based; conditions: NIH3T3:CL1-0 100:1
From the text: as §4

DNA = test: Fluorescence analysis in the presence of a DNA; format: binding; conditions: λex≈430 nm; compound 2 with eleven DNAs, compound 4 with Hum24
Protocol: as §3

[4] = tested on: tested cancer cells (CL1-1, H1299, hTERT-BJ, Ca9-22, HeLa, KJ-1); test: Cancer cell diagnosis by wide-field fluorescence microscopy; format: cell-based, human; conditions: each type of tested cancer cells; 0.1 μM, 3-6 hours
Protocol: A wide-field fluorescence microscopy was custom made for diagnosing cancer cells. The microscopy consists of an Ar^+ laser (Coherent Inc. Santa Clara, Calif.) as the light source, a sensitive cooled charged-coupled device (CCD) camera (DV465-UV, Andor Technology, South Windsor, Conn.) for imaging, and two avalanche photodiodes (APDs) for transient photoluminescence measurement. Excitation and imaging were conducted by an oil immersion microscope objective with a numerical aperture of 1.3. A dichroism mirror (Omega) was used to direct the fluorescence into the CCD camera. A holographic notch filter (Oriel) was used to block the backscattered laser light. Images of 250×250 pixels were recorded at a high speed. The imaged area was 50×50 μm^2 and the spatial resolution was about 2 pixels.
The following cells were tested: CL1-1 human lung cancer cells, H1299 lung cancer cells, hTERT-BJ lung cancer cells, Ca9-22 oral cancer cells, HeLa cervical cancer cells, KJ-1 nasopharyngeal cancer cells, HaCaT keratinocyte cells, Detroit-551 skin normal cells, IMR-90 lung normal cells, and BJ-1 lung fibroblast cells. Specifically, cells were incubated with 0.1 μM of compound 2 in a culture medium for 3-6 hours. The non-fixed cells were washed three times with phosphate-buffered saline and then studied under the wide-field fluorescence microscope.

NIH3T3 normal cells [5] = test: Stained cells spread onto cover slip, fluorescent cells counted; format: cell-based; conditions: 1.5 μM Compound 2, 5 minutes, LED
Protocol: (§5) Further, the role of the ratio of the cells stained by Compound 2/AO in cancer diagnosis was studied. Specifically, CL1-0 cancer cells, NIH3T3 normal cells, and their 1:10 mixture were respectively stained with 0.02 μM AO and 1.5 μM Compound 2 for 5 minutes in eppendorfs. Each sample was then taken from the eppendorf and spread onto a cover slip. Fluorescence emissions were recorded by a color camera upon an LED illumination. […] A statistical histogram of the ratio of the cell stained with Compound 2/AO to the ratio of the CL1-0 cells to the sum of NIH3T3 and CL1-0 cells was plotted. Each spot on the histogram represented an average of 5-10 measurements from a single sample.

CL1-0 cancer cells = test: as above; format: cell-based
Protocol: as §5

[6] = tested on: mixture of NIH3T3 normal cells and CL1-0 cancer cells with cell ratio of 10:1; test: as above; format: cell-based; conditions: 1.5 μM Compound 2, 5 minutes, LED
Protocol: as §5

[7] = Absorption analysis of the free compound; format: physicochemical; conditions: compound alone, before adding DNA
Protocol: Each oligonucleotide described above was mixed with a solution of 10 mM Tris-HCl (pH 7.5) and 150 mM NaCl and was denatured at 90° C. for 2 min. The mixture was then cooled slowly to room temperature and stored at 4° C. for more than 2 days before use. A test compound was then added to this solution to form a compound/DNA complex. The resultant complex was subjected to absorption analysis using a Hitachi U3200 UV-visible spectrophotometer.
The absorption spectra were taken for compound 2 and its complex with each oligonucleotide. […] In addition, the molar absorption coefficient decreased by ˜15% in the presence of a DNA duplex and ˜35% in the presence of a DNA quadruplex. 10 These spectra changes indicate that compound 2 binds to duplexes and quadruplexes.

For `C[n+]1ccc(C=Cc2ccc3[nH]c4ccc(C=Cc5cc[n+](C)cc5)cc4c3c2)cc1.[I-].[I-]` [Compound 2, 3,6-bis-(2-(1-methylpyridinium-4-yl)-vinyl)-9H-carbazole diiodide], the “fluorescence band in pre-stained gel” value (LD) was “weak fluorescence bands”, the “fluorescence band in pre-stained gel” value (AT) was “weak fluorescence bands” and the “fluorescence band in pre-stained gel” value (G10) was “no fluorescence bands”. The “fluorescence band in pre-stained gel” value (Hum12) was “weak fluorescence bands”, the “fluorescence band in pre-stained gel” value (LQ2) was “exhibited fluorescence bands” and the “fluorescence band in pre-stained gel” value (LQ1) was “no fluorescence bands”. For the same molecule, the “fluorescence band in pre-stained gel” value (GC) was “no fluorescence bands”, the “fluorescence band in pre-stained gel” value (Apt) was “weak fluorescence bands” and the “fluorescence band in pre-stained gel” value (Oxy12) was “exhibited fluorescence bands”. The “fluorescence in an aqueous solution” value [1] was “weak”, the “fluorescence observed from stained cells flowing through a tube” value (NIH3T3 normal cells [2]) was “only weak fluorescence” and the “fluorescence observed from stained cells flowing through a tube” value [3] was “bright fluorescence”. The “increase of fluorescence intensity in the presence of a DNA” value (DNA) was “two orders of magnitude”, the “percentage of cells exhibiting bright fluorescence in the nucleus” value [4] was “more than 70%” and the “number of stained cells showing fluorescence” value (“number” below) (NIH3T3 normal cells [5]) was 4. The “number” value (CL1-0 cancer cells; 1.5 μM Compound 2, 5 minutes, cover slip, LED) was about 22, the “fluorescence brightness in cancer cells versus normal cells” value (CL1-0 cancer cells; 1.5 μM, 5 minutes, CL1-0 versus NIH3T3, images) was “brighter fluorescence of Compound 2 in cancer cells than in normal cells” and the “number” value [6] was 7. For the same molecule, the absorption peak [7] was about 435 nm.
